Source: PMC10987543 (Cell Death Discovery, 2024)
Peptide text beside a SMILES is read from it. * marks the point of attachment. Cbz = O=C(OCc1ccccc1)*; CH2F = FC*

How the values were obtained:
4T1 cells [1] = assay: LDH release assay (CyQUANT); assay type: cell-based, murine; details: N = 3; for effect of inhibitor pretreatment on CKS1-induced release of LDH: 30 min pre-treatment (50 µM Z-VAD, 50 µM Nec-1s, 1 µM Fer-1), then 100 µM CKS1 6 hours; for release of LDH (oncolytic activity): 100 µM of the indicated peptides for 6 h, normalized to lysis buffer
Description: Ten thousand cells were seeded in a 96-well plate and incubated overnight. The cells were washed once, and the medium was replaced with serum-free media. Cells were treated with CKS1 for the indicated time and concentration. CyQUANT LDH cytotoxicity assay (Thermo Fisher Scientific) was used following the manufacturer’s instructions to measure the release of LDH. LDH release was normalized to the amount of LDH released from cells treated with lysis buffer.

4T1 cells [2] = assay: Calcein-AM live cell imaging of cytosol release; assay type: cell-based, murine; details: 4T1 cells, 50 µM Z-VAD 30 minutes, then 100 µM CKS1
Description: Fluorescence labeling of cells was performed by seeding 5.0 × 10^4 4T1 cells in a 35 mm dish on a collagen-coated No. 1.5 coverslip with a 14 mm glass diameter (MatTek, Ashland, MA). After overnight incubation, the cells were washed once with serum-free media and replaced with fresh serum-free media. For cell cytosol labeling, Calcein-AM (Thermo Fisher Scientific, C1430) was added at a final concentration of 5 µg/mL and incubated for 10 min. For mitochondrial membrane labeling, JC-1 (Thermo Fisher Scientific, T3168) was added at a final concentration of 10 µg/mL and incubated for 10 min. To monitor the activity of caspases, CellEvent Caspase-3/7 Red detection reagents (Thermo Fisher Scientific, C10423) were used following the manufacturer’s instructions. For nuclear staining, Hoechst 33342 (Cell Signaling Technology, #4082) was added at a final concentration of 5 µg/mL and incubated for 10 min.
Cells were imaged on either a Zeiss LSM 700 or a 3i spinning disk confocal microscope. Samples were imaged with optimized microscope settings. Z-stack, time-lapse, or multi-channel acquisition settings were adjusted based on the experimental requirements. Images were then acquired with the appropriate excitation and emission wavelengths for each fluorophore.
Image processing was performed using Fiji software. For each image/video, the brightness and the contrast were adjusted. The time stamp and the scale bar were added. For quantification, CellProfiler was used. After cell segmentation based on the nucleus, the intensity of the signal of interest was quantified for each cell. Based on the intensity, each cells were labeled as positive or negative and the fraction of positive cells was calculated.

Solubility in water = details: data not shown
caspase-3 = details: cited from earlier work
Excerpt: The factors that determine whether a peptide induces apoptosis or not are not fully known. […] Although the mechanism of how CKS1 treatment affects the mitochondria remains unanswered, the malfunctioning of mitochondria caused by CKS1 may be the ...

With `CCOC(=O)c1ccc(NC2CCCCC2)c(N)c1` [Fer-1, ferrostatin-1, reference compound] the “effect of inhibitor pretreatment on CKS1-induced release of LDH” value (shortened to “effect of inhibitor pretreatment … of LDH”) (4T1 cells [1]) was “did not inhibit the release of LDH”.

For `CN1C(=O)NC(Cc2c[nH]c3c(Cl)cccc23)C1=O` (stereo not shown) [Nec-1s, necrostatin-1 stable, reference compound], the “effect of inhibitor pretreatment … of LDH” value (4T1 cells [1]) was “did not inhibit the release of LDH”.

With `COC(=O)C[C@H](NC(=O)[C@H](C)NC(=O)[C@@H](NC(=O)OCc1ccccc1)C(C)C)C(=O)CF` [Z-VAD, reference compound] (Cbz-Val-Ala-Asp(OMe)-CH2F) the “effect of inhibitor pretreatment … of LDH” value (4T1 cells [1]) was “did not inhibit the release of LDH” and the “effect of inhibitor pretreatment on CKS1-induced release of calcein” value (4T1 cells [2]) was “did not inhibit nor slow down the release of calcein”.

For IVKKIIEKMLNS [helical region of CKS1], the “release of LDH (oncolytic activity)” value (4T1 cells [1]) was “induced LDH release” and the solubility in water (Solubility in water) was “poorly soluble in water”.

For LTX-315, the caspase-3 activity (caspase-3) is listed as “failed to stimulate caspase-3 activity”.

In the case of “NGRKACLNPASP [loop region of CKS1, peptide that contains the N-terminal loop region of CKS1]”, the “release of LDH (oncolytic activity)” value (4T1 cells [1]) is reported as “did not”.

In the case of “NGRKACLNPASPIVEEIIEEMLNS [NC1, mutant of CKS1, three lysines replaced with glutamic acids, anionic]”, the “release of LDH (oncolytic activity)” value (4T1 cells [1]) is reported as “did not show oncolytic activity”.

In the case of “NGRKACLNPASPIVKKIIPEKMLNS [NC2, mutant of CKS1, single proline inserted in the middle of the α-helix]”, the “release of LDH (oncolytic activity)” value (4T1 cells [1]) is reported as “did not show oncolytic activity”.
